Laboratory results: patent publication US10100097B2, “GIP-GLP-1 dual agonist compounds and methods” (Zealand Pharma A/S, priority 2012, dated 2018)
Numbered stars: 1 amine (or outer) side, 2 acyl side, 3 side chain; on linkers, the order of the positions; unused ones are H or OH. Square brackets hold non-standard residues; d marks the D form. Side chains are listed from the residue outwards. Peptide text beside a SMILES is read from it. * marks the point of attachment. γGlu = O=C(O)[C@H](CCC(=O)[*:2])N[*:1]; Palmitoyl = CCCCCCCCCCCCCCCC(=O)*; Aib = CC(C)(N)C(=O)O

Legend:
human GLP-1 R = target: T1, human GLP-1 R (Homo sapiens, UniProt P43220); assay: Human GLP-1 receptor (GLP-1 R) activity assay, cAMP induction (AlphaScreen cAMP kit); format: cell-based; conditions: HEK293 cells expressing the human GLP-1 R, 15 min at 37° C., average values of multiple determinations, read-out: GLP1 R (EC50 in nM)
T1 construct: expressed in transfected cells
T1 sequence (P43220 24-463): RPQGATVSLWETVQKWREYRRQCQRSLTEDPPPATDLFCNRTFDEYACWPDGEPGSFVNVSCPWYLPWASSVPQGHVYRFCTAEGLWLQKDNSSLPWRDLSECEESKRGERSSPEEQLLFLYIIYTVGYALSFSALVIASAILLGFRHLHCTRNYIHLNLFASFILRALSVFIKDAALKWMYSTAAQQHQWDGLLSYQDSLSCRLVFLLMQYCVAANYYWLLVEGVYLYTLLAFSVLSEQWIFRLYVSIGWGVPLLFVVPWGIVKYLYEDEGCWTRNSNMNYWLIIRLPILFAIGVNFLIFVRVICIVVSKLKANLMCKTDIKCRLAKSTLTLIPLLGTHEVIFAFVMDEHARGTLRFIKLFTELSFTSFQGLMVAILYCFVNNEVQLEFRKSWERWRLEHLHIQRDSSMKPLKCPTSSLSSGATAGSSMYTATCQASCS
Summary of the method: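 Stable HEK293 clones expressing human GIP R or GLP-1 R, grown 1 day, washed in Tyrode's buffer (10 mM HEPES, pH 7.4), then stimulated with peptide. Cells lysed and cAMP quantified by AlphaScreen competition with biotinylated cAMP, 1 h dark incubation at room temperature.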

Male C57BL/6J mice = assay: IPGTT (Intraperitoneal Glucose Tolerance Test) in mice; format: in vivo; conditions: for Effect on glucose tolerance as compared to vehicle: glucose 2 g/kg i.p., peptides s.c., all time points, p<0.05 vs. vehicle
Protocol: IPGTT (Intraperitoneal Glucose Tolerance Test) in Mice
Male C57BL/6J mice (Charles River, Germany) were maintained on normal chow (Altromin 1324, Brogaarden A/S, Gentofte, Denmark) and domestic quality water with added citric acid to pH˜3.6. The animals were housed pair-wise in a light-, temperature-, and humidity-controlled room (12:12 h light-dark cycle, with lights on at 06.00-18.00 hr; 20-22° C.; 50-80% relative humidity). Mice were fasted for 5 hr before the IPGTT. Peptides and vehicle were administered subcutaneously before the intraperitoneal injection of glucose (t=0 min; 2 g/kg; 5 ml/kg). Tail vein blood was sampled at time t=0 (before glucose administration), 15, 30, 45, 60, 90, and 120 min for measurements of blood glucose.

in vivo = conditions: C57BL/6J, mouse, plasma, sc, 200 nmol/kg
Protocol: C57BL/6J mice were given a single subcutaneous dose of 200 nmol/kg body weight of each peptide to be tested. Blood samples were drawn 0.5, 2, 4, 6, 8, 16, 24 and 36 hours post-dose by sublingual bleeding. At each time point, samples from two mice were taken, i.e. 16 mice per compound. The mice were euthanized immediately after blood sampling by cervical dislocation. Plasma samples were analyzed after solid phase extraction (SPE) by liquid chromatography mass spectrometry (LC-MS/MS).

human GIP R = target: T2, human GIP R (Homo sapiens, UniProt P48546); assay: Human GIP receptor (GIP R) activity assay, cAMP induction (AlphaScreen cAMP kit); format: cell-based; conditions: HEK293 cells expressing the human GIP R; cAMP induction, 15 min at 37° C.; average values of multiple determinations; read-out: GIP R (EC50 in nM)
T2 construct: expressed in transfected cells
T2 sequence (P48546 22-466): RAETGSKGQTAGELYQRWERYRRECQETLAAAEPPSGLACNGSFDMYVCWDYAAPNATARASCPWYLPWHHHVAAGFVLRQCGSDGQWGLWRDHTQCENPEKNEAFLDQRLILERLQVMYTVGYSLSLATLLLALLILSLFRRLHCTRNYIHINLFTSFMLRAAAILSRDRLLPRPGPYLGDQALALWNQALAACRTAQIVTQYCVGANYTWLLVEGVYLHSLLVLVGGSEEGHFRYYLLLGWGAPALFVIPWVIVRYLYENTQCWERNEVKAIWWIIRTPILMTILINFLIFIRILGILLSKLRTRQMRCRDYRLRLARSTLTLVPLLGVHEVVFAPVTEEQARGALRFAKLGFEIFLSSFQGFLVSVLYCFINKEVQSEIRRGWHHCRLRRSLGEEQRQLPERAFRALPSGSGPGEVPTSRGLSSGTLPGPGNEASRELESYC
Protocol: Human GIP Receptor (GIP R) and GLP-1 Receptor (GLP-1 R) Activity Assay
In vitro effects of peptide conjugates of the invention were assessed by measuring the induction of cAMP following stimulation of the respective receptor by GIP, GLP1 or analogues of these, as outlined in the invention, using the AlphaSceen® cAMP kit from Perkin-Elmer according to instructions. Briefly. HEK293 cells expressing the human GIP R or GLP-1 R (stable cell lines generated through transfection of the cDNA for human GIP R or GLP-1 and selection of stable clones) were seeded at 30,000 cells/well in 96-well microtiter plates coated with 0.01% poly-L-lysine, and grown for 1 day in culture in 200 μl growth medium (DMEM, 10% FCS, Penicillin (100 IU/ml), Streptomycin (100 μg/ml)). On the day of analysis, growth medium was removed and the cells were washed once with […] Tyrode's buffer (Tyrode's Salts (9.6 g/1), 10 mM HEPES, pH 7.4). […] The Assay buffer was removed and cells are lysed in 80 μl Lysis buffer (0.1% w/v BSA, 5 mM HEPES, 0.3% v/v Tween-20) per well. From each well 10 μl lysed cells was transferred to a 384-well plate and mixed with 15 μl bead-mix (1 Unit/15 μl anti-cAMP Acceptor Beads, 1 Unit/15 μl Donor Beads, and 1 Unit/15 μl Biotinylated cAMP in Assay Buffer). The plates were mixed and incubated in the dark for an hour at room temperature before measuring using an Envision™ plate reader (Perkin-Elmer).

Structure (SMILES) | EC50 (human GLP-1 R) [nM] | Effect on glucose tolerance as compared to vehicle (Male C57BL/6J mice) | half-life (in vivo) [h] | Reduction in blood glucose compared with liraglutide (Male C57BL/6J mice; time t=60 min, p<0.05 vs. liraglutide) | EC50 (human GIP R) [nM]
CCCCCCCCCCCCCCCC(=O)N[C@@H](CCC(=O)NCCCC[C@H](NC(=O)[C@H](CCCCN)NC(=O)[C@H](CC(=O)O)NC(=O)[C@H](CC(C)C)NC(=O)C(C)(C)NC(=O)[C@@H](NC(=O)[C@H](CO)NC(=O)[C@H](Cc1ccc(O)cc1)NC(=O)[C@H](CC(=O)O)NC(=O)[C@H](CO)NC(=O)[C@@H](NC(=O)[C@H](Cc1ccccc1)NC(=O)[C@@H](NC(=O)CNC(=O)[C@H](CCC(=O)O)NC(=O)C(C)(C)NC(=O)[C@@H](N)Cc1ccc(O)cc1)[C@@H](C)O)[C@@H](C)O)[C@@H](C)CC)C(=O)N[C@@H](C)C(=O)N[C@@H](CCC(N)=O)C(=O)N[C@@H](CCCNC(=N)N)C(=O)N[C@@H](C)C(=O)N[C@@H](Cc1ccccc1)C(=O)N[C@H](C(=O)N[C@@H](CCC(=O)O)C(=O)N[C@@H](Cc1c[nH]c2ccccc12)C(=O)N[C@@H](CC(C)C)C(=O)N[C@@H](CC(C)C)C(=O)N[C@@H](C)C(=O)N[C@@H](CCC(N)=O)C(=O)NCC(=O)N1CCC[C@H]1C(=O)N[C@@H](CO)C(=O)N[C@@H](CO)C(=O)NCC(=O)N[C@@H](C)C(=O)N1CCC[C@H]1C(=O)N1CCC[C@H]1C(=O)N1CCC[C@H]1C(=O)N[C@@H](CO)C(N)=O)C(C)C)C(=O)O [Compound 32] (H-Y[Aib]EGTFTSDYSI[Aib]LDKK([γGlu-Palmitoyl])AQRAFVEWLLAQGPSSGAPPPS-NH2) | 0.018 | significantly improved glucose tolerance | 3.4 |  | 
CCCCCCCCCCCCCCCC(=O)N[C@@H](CCC(=O)NCCCC[C@H](NC(=O)[C@H](CCCCN)NC(=O)[C@H](CC(=O)O)NC(=O)[C@H](CC(C)C)NC(=O)[C@H](Cc1ccc(O)cc1)NC(=O)[C@@H](NC(=O)[C@H](CO)NC(=O)[C@H](Cc1ccc(O)cc1)NC(=O)[C@H](CC(=O)O)NC(=O)[C@H](CO)NC(=O)[C@@H](NC(=O)[C@H](Cc1ccccc1)NC(=O)[C@@H](NC(=O)CNC(=O)[C@H](CCC(=O)O)NC(=O)C(C)(C)NC(=O)[C@@H](N)Cc1ccc(O)cc1)[C@@H](C)O)[C@@H](C)O)[C@@H](C)CC)C(=O)N[C@@H](C)C(=O)N[C@@H](CCC(N)=O)C(=O)N[C@@H](CCCNC(=N)N)C(=O)N[C@@H](C)C(=O)N[C@@H](Cc1ccccc1)C(=O)N[C@H](C(=O)N[C@@H](CCC(=O)O)C(=O)N[C@@H](Cc1c[nH]c2ccccc12)C(=O)N[C@@H](CC(C)C)C(=O)N[C@@H](CC(C)C)C(=O)N[C@@H](C)C(=O)N[C@@H](CCC(N)=O)C(=O)NCC(=O)N1CCC[C@H]1C(=O)N[C@@H](CO)C(=O)N[C@@H](CO)C(=O)NCC(=O)N[C@@H](C)C(=O)N1CCC[C@H]1C(=O)N1CCC[C@H]1C(=O)N1CCC[C@H]1C(=O)N[C@@H](CO)C(N)=O)C(C)C)C(=O)O [Compound 33] (H-Y[Aib]EGTFTSDYSIYLDKK([γGlu-Palmitoyl])AQRAFVEWLLAQGPSSGAPPPS-NH2) | 0.031 | significantly improved glucose tolerance | 3.7 | statistically significant greater reduction | 
CC[C@H](C)[C@H](NC(=O)[C@H](CO)NC(=O)[C@H](Cc1ccc(O)cc1)NC(=O)[C@H](CC(=O)O)NC(=O)[C@H](CO)NC(=O)[C@@H](NC(=O)[C@H](Cc1ccccc1)NC(=O)[C@@H](NC(=O)CNC(=O)[C@H](CCC(=O)O)NC(=O)C(C)(C)NC(=O)[C@@H](N)Cc1ccc(O)cc1)[C@@H](C)O)[C@@H](C)O)C(=O)N[C@@H](Cc1ccc(O)cc1)C(=O)N[C@@H](CC(C)C)C(=O)N[C@@H](CC(=O)O)C(=O)N[C@@H](CCCCN)C(=O)N[C@@H](CCCCN)C(=O)N[C@@H](C)C(=O)N[C@@H](C)C(=O)N[C@@H](Cc1c[nH]cn1)C(=O)N[C@@H](CC(=O)O)C(=O)N[C@@H](Cc1ccccc1)C(=O)N[C@H](C(=O)N[C@@H](CCC(=O)O)C(=O)N[C@@H](Cc1c[nH]c2ccccc12)C(=O)N[C@@H](CC(C)C)C(=O)N[C@@H](CC(C)C)C(=O)N[C@@H](CO)C(=O)N[C@@H](C)C(N)=O)C(C)C [Compound 42] (H-Y[Aib]EGTFTSDYSIYLDKKAAHDFVEWLLSA-NH2) | 0.012 |  |  |  | 0.007
